Results from US20070248590A1, “Modulators of CDC2-like kinases (CLKS) and methods of use thereof” (Sirtris Pharmaceuticals, Inc., priority 2005, published 2007).

Columns and labels:
HDAC = conditions: in vitro or in vivo, literature; cited from earlier work
[1] = tested on: insulin induction of CLK2 alternate splicing in FAO cells; test: CLK2 splicing analysis (RT-PCR with primers flanking exon 4) in FAO cells; assay type: cell-based, rat; conditions: 20 μM inhibitor pretreatment
Procedure: Splicing Analysis. Total RNA was isolated from FAO hepatocytes pre-treated with indicated inhibitor then Insulin for 2 hours. RT-PCR was performed using SuperScript One-Step RT-PCR with taq (Invitrogen) on 1 ug of total RNA using primers flanking exon 4 on Clk2 and Clk1.

[2] = tested on: PGC-1alpha and SIRT1 phosphorylation in H2.35 cells; test: Metabolic 32P PO4 labeling of H2.35 cells, insulin stimulated; assay type: cell-based, mouse; conditions: 30 minutes pretreatment, 40 minute insulin stimulation
Procedure: PGC-1alpha and SIRT1 phosphorylation in vivo is stimulated by insulin and blocked by LY and TG003 as determined by metabolic ^32P PO4 labeling of H2.35 cells infected with adenovirus Flag-Ha-PGC-1alpha or Flag-HA-SIRT1. Cells were infected for 24 hours low glucose DMEM 4% FBS then serum starved for 24 hours in low glucose DMEM 0.5% BSA. Media was then replaced with PO4 free DMEM 0.5% BSA for 30 minutes, and cells were then pretreated with LY or TG003 for 30 minutes before addition of 100 uCi ^32P PO4. Cells were incubated in ^32P PO4 for 20 minutes before a 40 minute insulin stimulation. Cells were then washed with ice-cold PBS, harvested and lysed. Flag-HA-PCC-1alpha and Flag-HA-SIRT1 were immunoprecipitated used anti-flag agarose (Sigma-Aldrich, Cat. #A4596). Immunoprecipitates were washed extensively and analyzed by SDS-PAGE, transferred to PVDF membrane where ^32P signal was analyzed by a Bio-Rad Phosphor-Imager (Bio-Rad Laboratories) (FIG. 20A) and normalized to protein quantitated by western blot using anti-flag antibodies by a Versa-Doc camera system and quantitation software (Bio-Rad Laboratories) (FIG. 20B).

[3] = tested on: CLK2 phosphorylation of Sirt1 in HEK 293 cells; test: Metabolic 32P labeling of Flag-HA-Sirt1 in transfected HEK 293 cells; assay type: cell-based, human; conditions: 40 uM TG003
Procedure: (§1) Cell Culture. HEK 293 Cells were cultured in DMEM+10% CCS. FAO Rat hepatocytes were grown in Hamm's F-12 media with 5% FBS. Prior to experiments or adenoviral infections media was switched to RPMI+0.5% BSA. H2.35 Mouse Hepatocytes were grown in DMEM (low glucose)+4% FBS and 2 μM Dexamethasome. Prior to experiments and infection, media was switched to DMEM (low glucose)+0.5% BSA. CLK inhibitor, TG003 (CalBiochem) was dissolved in DMSO.
(§2) Immunoprecipitation and Co-Immunoprecipitation. Cells were washed once with PBS containing Phosphatase inhibitors (5 mM Glycerol-2-phosphate, 20 mM NaF, and 0.2 mM Na OrthoVanadate), scraped into tubes, spun down, and lysed by 2× freeze-thaw cycles in 0.4% Triton, 100 mM NaCl, 20 mM KHepes pH 7.9, 1 mM EDTA, Phosphatase inhibitors, 1 mM PMSF, and 1× Protease Inhibitors (Roche). Immunoprecipitations were performed with M2 anti-flag agarose (sigma) or Anti-HA agarose (Roche) for 2 hours rotating at 4 degrees C. followed by 3 washes in lysis buffer. Products were resolved by SDS-PAGE and transferred to PVDF membranes for Western blot analysis.
Metabolic Labeling. HEK 293 were transfected as described above. […] Immunoprecipitates were resolved by SDS-PAGE and transferred to PVDF membrane, ^32PO4 was detected by exposing membrane to Phospho-imaging screen and followed by Western-Blot using anti-flag antibodies (M2, Sigma).

[4] = tested on: gluconeogenic genes (PGC-1alpha targets) in FAO hepatocytes; test: Northern blot of PGC-1alpha target genes in FAO hepatocytes; assay type: cell-based, rat
Procedure: Northern Blot and RNA analysis. FAO hepatocytes were infected with indicated adenovirus overnight in RPMI+0.5% BSA. Cells were grown for 2 more days in RPMI+0.5% BSA. Cells were treated as indicated. Total RNA was isolated using Trizol (Invitrogen). Northern blots using indicated cDNAs were performed on 15 μg of total RNA. Quantitation of RNA was performed by exposing membranes to phosphor-imager screens and analyzed by a Bio-Rad Personal Imager FX and Quantity-One quantitation software (Bio-Rad).

[5] = tested on: CLK2 repression of PGC-1alpha coactivation of HNF4alpha; test: gAF1-luciferase (HNF4alpha response element) reporter assay in HEK 293 cells; assay type: cell-based, human; conditions: 20 μM TG003
Procedure: Transient Transfections. HEK 293 were transfected using PolyFect (Qiagen). 25 ng of reporter (gAF1-Luciferase) and 25 ng of pcDNA mouse HNF4-alpha were transfected with pcDNA mouse PGC-1 alpha and pcDNA Flag-CLK2. Equal amounts of total DNA were used for all transfections by adding appropriate amounts of empty vector pcDNA. TG003 (Calbiochem) was added 4 hours after transfection and cells were harvested the next morning. The data presented is the average of 3 replicates from a single experiment, all luciferase experiments were performed at least 3 times with similar results.

[6] = tested on: PEPCK mRNA expression in FAO hepatocytes; test: Pepck mRNA by Q-RT-PCR in FAO hepatocytes; assay type: cell-based, rat; conditions: 20 uM TG003 for 7 hours
Procedure: (§3) Cells were grown in F-12+5% FBS then switched to 10% FBS and treated with or without 20 uM TG003 for 7 hours. Total RNA was isolated using Trizol (Invitrogen, Cat. # 15596-026) and reverse transcribed using oligo dT and super script II (Inivtrogen, Cat. # 18064-014). Pepck mRNA was measured by Q-RT-PCR relative to 36B4 control mRNA. Each bar is average+/−stdev N=3.
as §3, with “serum starved O/N and” for “grown in F-12+5% FBS”, “then” for “then switched to 10% FBS and”, “200 nM Insulin” for “20 uM TG003”, “2” for “7”

[7] = tested on: diet-induced obese (DIO) C57BL/6 mice; test: Oral dosing of TG003 in DIO mouse model; assay type: in vivo
Procedure: Twenty 9 week old C57BL/6 mice were placed on 60% kcal % fat diet (high fat diet with 60% of calories from fat; Research Diets, Inc., New Brunswick, N.J. Cat. No. D12492) and 15 mice were placed on regular chow. Mice were weighed once a week for 5 weeks, baseline fed glucose, triglycerides and insulin was measured. At approximately 6 weeks on the high fat diet, or when the average body weight of the DIO mice becomes 40 grams, dosing began at various doses and preparations. Mice were dosed daily with either vehicle (2% HPMC+0.2% DOSS) or with TG003 suspended in vehicle and dosed via oral gavage at 100 mg/kg (10 animals each in DIO group; 9 animals in vehicle chow group and 6 animals in TG003 chow group). The study was divided into DIO groups with mean average body weight/cage. Chow fed groups were also sorted by mean average body weight/cage. Body weights were measured once weekly to adjust dosing concentrations for body weight.
Baseline blood on all mice for glucose, triglycerides, insulin, etc. was taken following a one hour food withdrawal. Once dosing started, data collections were as follows: Week 1 time point included fasted blood glucose and body temps for select groups, Week 2 was a fed blood collection, Week 3 fasted blood glucose, Week 4 body temps on select groups and endpoint blood and tissue collection. Body temperature of select groups post dosing on week 1 and week 4 was also taken. Concentration of TG003 compound is adjusted to proper dose according to the mean weight for each group weekly. Final blood collection of all groups was taken 1 hour after dosing in order to determine levels of drug in blood compared to original PK. Mice were not dosed on the day of week 2 blood collections. Mice are typically dosed in the a.m. and only dosed in the p.m. on a day following a 16 hr fast. A test for Free Fatty Acids is done with the plasma final blood collection and with final plasma collection. Assays were done as described above for TG003 IP dosing example.

[8] = tested on: diet-induced obese (DIO) C57BL/6 mice; test: IP dosing of TG003 in DIO mouse model; assay type: in vivo
Procedure: Specifically, 5 week old C57BL/6 mice (male 18-22 grams, Charles River Labs, Willmington, Mass.) are placed either on a high fat diet (Research Diets Inc., New Brunswick, N.J., 60% kcal fat Rodent Diet Cat#D12492) or regular chow. Mice are weighed once a week for 5 weeks, test baseline fed glucose, lactate, triglycerides and insulin. At approximately 6 weeks or when mean weight of the DIO groups reach 40 grams, dosing is initiated. TG003 was dosed via IP injection at either 30 or 100 mg/kg (TG003 suspended in 2% HPMC+0.2% DOSS as in previous example). Control DIO and chow fed animals were dosed with IP injection of vehicle alone. Once dosing starts data collections was as follows: Week 1 time point includes a fasted blood glucose measurement, Week 2 blood collection, Week 3 an IPGTT and Week 4 is an endpoint blood and tissue collection.
Mice are dosed at the same time daily. Body weights are taken 2 times a week once dosing starts. Baseline measurements of fed glucose, lactate, triglycerides and insulin are taken at time 0 (commencement of dosing).
Insulin Assay: Mouse insulin levels were measured using the Linco Rat/Mouse Insulin ELISA kit (Cat. #EZRMI-13K). 0 week, 2 week and 4 week blood insulin levels are shown in FIGS. 27A, 27B and 27C respectively for 100 mg/kg TG003 study. 0 week, 2 week and 4 week blood insulin levels are shown in FIGS. 31A, 31B and 31C respectively for 30 mg/kg TG003 study.
IPGTT: Mice are fasted for a minimum of 16 hrs. A glucose reading is taken at time Zero using a glucose meter. Mice are injected with 2 g/kg D-Glucose at one minute time points. A glucose reading is taken at 15, 30, 60, and 120 minutes (Medisense Precision Extra, Blood Glucose Meter, Abbott Cat# 70297-01).

[9] = tested on: total phosphorylation of PGC-1alpha and Sirt1 in FAO cells; test: Metabolic 32P labeling of PGC-1alpha and Sirt1 in FAO hepatocytes; assay type: cell-based, rat; conditions: 40 μM TG003
Procedure: as §1
Metabolic Labeling. HEK 293 were transfected as described above. The next morning cells were switched to DMEM without PO4+10% CCS for 30 minutes, cells were then treated with or without TG003 for 30 minutes then 200 μCi of ^32PO4 was added for 2 hours. Cells were harvested and immunoprecipitation was performed as described above. Immunoprecipitates were resolved by SDS-PAGE and transferred to PVDF membrane, ^32PO4 was detected by exposing membrane to Phospho-imaging screen and followed by Western-Blot using anti-flag antibodies (M2, Sigma).
FAO Hepatocytes were infected with adenovirus as indicated in the figures for 2 days in RPMI+0.5% BSA. Metabolic labeling was performed as described above, except cells were incubated in ^32PO4 for 4 hours.

[10] = tested on: CLK2 interaction with Sirt1 in HEK 293 cells; test: Co-immunoprecipitation of endogenous Sirt1 with Flag-CLK2 in HEK 293 cells; assay type: cell-based; conditions: HEK 293 cells transfected with Flag-CLK2
Procedure: as §2

[11] = FAO hepatocytes overexpressing PGC-1alpha, increasing amounts of TG003
[12] = systemic intraperitoneal delivery, DIO mice, 30 or 100 mg/kg

## O=C(/C=C/c1cccc(C(=O)NO)c1)NO [CBHA, m-carboxy-cinnamic acid bishydroxamic acid]
HDAC
  inhibition of HDAC: micromolar concentration or lower

## C/C=C1\NC(=O)[C@H]2CSSCC/C=C/[C@H](CC(=O)N[C@H](C(C)C)C(=O)N2)OC(=O)[C@H](C(C)C)NC1=O [Depsipeptide]
HDAC
  inhibition of HDAC: micromolar concentrations

## O=c1cc(N2CCOCC2)oc2c(-c3ccccc3)cccc12 [LY]
[1]
  insulin induction of CLK2 alternate splicing (truncated transcript): blocks
[2]
  insulin-stimulated PGC-1alpha phosphorylation: blocked
  insulin-stimulated SIRT1 phosphorylation: blocked

## CCN1/C(=C/C(C)=O)Sc2ccc(OC)cc21 [TG003, (Z)-1-(3-ethyl-5-methoxy-2,3-dihydrobenzothiazol-2-ylidene) propan-2-one]
[1]
  insulin induction of CLK2 alternate splicing (truncated transcript): blocks
[3]
  incorporation of 32phosphate into Flag-HA-Sirt1 WT: noticeably decreased
  shift in Sirt1 mobility caused by overexpression of CLK2: abrogated
[4]; [11]
  induction of G6Pase: seen in a dose dependent manner
  induction of Pepck: seen in a dose dependent manner
[4]; FAO hepatocytes, 40 μM TG003 for 1 hour then Fsk+Dex
  CLK2 repression of PGC-1alpha induction of gluconeogenic genes (G6Pase, Pepck): rescued
[5]
  CLK2 repression of PGC-1 alpha (luciferase activity): partially rescues
[6]
  Pepck mRNA relative to 36B4: induction
[2]
  insulin-stimulated PGC-1alpha phosphorylation: blocked
  insulin-stimulated SIRT1 phosphorylation: blocked
[7]; 100 mg/kg oral dosing
  in vivo effect on body weight seen with IP dosing: did not repeat
[7]; 100 mg/kg oral vs vehicle, 2 week, DIO or chow groups
  fed insulin: not much of an effect
[7]; 100 mg/kg oral vs vehicle, 4 week, DIO or chow groups
  fed blood glucose: not much of an effect
[7]; DIO animals, 100 mg/kg oral, 1 week of dosing
  body temperature: significant drop
[7]; DIO animals, 100 mg/kg oral, 4 weeks of dosing
  drop in body temperature: > 2 degree
[7]; chow fed group, 100 mg/kg oral
  body temperature: no significant effect
[8]; IP dosing, multiple injections
  drug remaining at injection site upon sacrifice: observed in the intraperitoneal cavity
[8]; [12]
  blood glucose levels: decrease
  blood insulin levels: decrease
  body weight: decrease
[9]
  total phosphorylation of PGC-1alpha (32phosphate relative to protein levels): decreased
  total phosphorylation of Sirt1 (32phosphate relative to protein levels): decreased
[10]
  mobility of Sirt1 co-immunoprecipitated with CLK2: shifted to a band with faster mobility

## depudecin
HDAC
  inhibition of HDAC: micromolar concentrations

## trichostatin A [TSA]
HDAC
  inhibition of HDAC: potent inhibitor
